Measured values from US9447086B2, “6-amino acid heteroaryldihydropyrimidines for the treatment and prophylaxis of hepatitis B virus infection” (priority 2012, dated 2016).
Read-outs that look alike come from different tables or passages of the source. Marks after values point to notes of the source that are not given here.

Legend:
[1] = literature data, Deres K. et al. Science 2003, 893-896; cited from earlier work
HBV [2] = conditions: literature data, Deres K. et al. Science 2003, 893-896; cited from earlier work
[3] = Mouse SDPK (single dose PK in male ICR mouse, plasma and liver); format: in vivo; conditions: male ICR mice; for bioavailability / AUC(0-inf) / clearance: mouse; for bioavailability: 1 mg/kg IV, 3 mg/kg PO, read-out: F (bioavailability); for clearance: read-out: Plasma Cl (IV)
Protocol: The single dose PK in male ICR mouse was performed to assess their pharmacokinetic properties. Two groups of animals were dosed via either bolus intravenous (IV) or oral gavage (PO) of the respective compound. The animals for oral administration were fasted overnight prior to dosing and food was resumed 4 hours postdose. Blood samples (approximately 400 μL) were collected via cardiac puncture after euthanasia by carbon dioxide inhalation at 2 mins, 5 mins, 15 mins, 30 mins, 1 h, 2 hrs, 4 hrs, 6 hrs, 8 hrs, and 24 hrs postdose for IV group, and at 5 mins, 15 mins, 30 mins, 1 h, 2 hrs, 4 hrs, 6 hrs, 8 hrs, and 24 hrs postdose for PO group. Blood samples were placed into tubes containing sodium heparin and centrifuged at 8000 rpm for 6 minutes at 4° C. to separate plasma from the samples. Following centrifugation, the resulting plasma was transferred to clean tubes for bioanalysis on LC/MS/MS. The pharmacokinetic parameters were calculated using non-compartmental module of WinNonlin® Professional 5.2.

HBV [4] = assay: Anti-HBV activity in vitro in HepG2.2.15 cells (extracellular HBV DNA by qPCR); format: cell-based, Hepatitis B virus; conditions: HepG2.2.15 cells, in-house data, read-out: EC50
Procedure, shortened: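 HepG2.2.15 cells, which constitutively produce HBV, were seeded overnight and then treated for 5 days with half-log serially diluted compounds at 0.5% final DMSO. Extracellular HBV DNA in culture supernatant was extracted and quantified by qPCR.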

[5] = Metabolic stability study in human microsome; format: in vitro ADME
Procedure, shortened: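 Human liver microsomes (0.5 mg/mL) with 1 μM compound in 100 mM phosphate pH 7.4 at 37 °C, started with 1 mM NADPH or an NADPH-regenerating system. Samples taken at 0, 3, 6, 9, 15 and 30 min, quenched in methanol. Parent remaining measured by LC-MS/MS; no-cofactor controls included.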

HBV [6] = assay: Selectivity index (CC50 value/EC50 value); format: cell-based, Hepatitis B virus
Procedure, shortened: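 Ratio of CC50 to EC50, measuring antiviral activity against HBV relative to cytotoxicity in vitro; higher values indicate greater separation between viral inhibition and cell death.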

[7] = Cytotoxicity (CC50) in HepDE19 cells, CCK-8 cell viability; format: cell-based; conditions: human, HepDE19 cells; read-out: CC50
Procedure, shortened: (§1)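 HBV-transfected HepG2-derived HepDE19 cells grown in DMEM-F12 with 10% FBS and G418. Viability read five days after treatment by CCK-8, 2 h at 37 °C, absorbance at 450 and 630 nm.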

[8] = Lyophilisation solubility assay (Lysa); format: physicochemical; conditions: phosphate buffer, pH 6.5, aqueous buffer, thermodynamic from solid
Procedure, shortened: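 Duplicate samples from 10 mM DMSO stocks are dried, redissolved in 0.05 M phosphate buffer pH 6.5, stirred 1 h, shaken 2 h and left overnight. Filtrate and its 1/10 dilution are quantified by direct UV or HPLC-UV, giving solubility in μg/mL.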

HepDE19 cells = assay: Cytotoxicity (CC50) in HepDE19 cells, CCK-8 cell viability; format: cell-based
Procedure, shortened: as §1

[9] = plasma, dose 1 mg/kg IV, read-out: Plasma AUC(0-∞) (IV)
[10] = plasma, dose 3 mg/kg PO, read-out: Plasma AUC(0-∞) (PO)

Structure (SMILES)	F (bioavailability) [1]	Plasma Cl (IV) [1]	EC50 (HBV [2])	F (bioavailability) ([3]; plasma, 5 mg/kg IV, 30 mg/kg PO)	Plasma AUC(0-∞) (IV) ([3]; plasma, dose 5 mg/kg IV)	Plasma Cl (IV) ([3]; plasma, dose 5 mg/kg IV)	Plasma AUC(0-∞) (PO) ([3]; plasma, dose 30 mg/kg PO)	EC50 (HBV [4])	Human Hepatic Clearance [5]	Selectivity index (CC50/EC50) (HBV [6])	CC50 at 5 days [7]	Liver AUC(0-∞) (PO) ([3]; dose 3 mg/kg PO)	bioavailability ([3]; plasma)	AUC(0-inf) [3, 9]	clearance ([3]; plasma, dose 1 mg/kg IV)	AUC(0-inf) [3, 10]	EC50 (HBV [4]; Hepatitis B virus)	solubility thermodynamic [8]	CC50 (HepDE19 cells)	Plasma AUC(0-∞) (PO) ([3]; plasma, dose 3 mg/kg PO)
COC(=O)C1=C(C)NC(c2ncc(F)cc2F)=N[C@H]1c1ccc(F)cc1Cl [Bay 41-4109, reference compound]	(31^1) %	(67^1) mL/min/kg	50 nM	21%	1380 ng·h/mL	60 mL/min/kg	1740 ng·h/mL	87 nM	–	–	–	–	–	–	–	–	–	–	–	–
COC(=O)C1=C(CN2CC(F)(F)C[C@H]2C(=O)O)NC(c2nccs2)=N[C@H]1c1ccc(F)cc1Cl [Example 2, (R)-6-((S)-2-Carboxy-4,4-difluoro-pyrrolidin-1-ylmethyl)-4-(2-chloro-4-fluoro-phenyl)-2-thiazol-2-yl-1,4-dihydro-pyrimidine-5-carboxylic acid methyl ester]	–	–	–	–	–	–	–	–	3.65 mL/min/kg	31481	85000 nM	18000 ng·h/mL	94%	995 ng·h/mL	17 mL/min/kg	2790 ng·h/mL	2.7 nM	> 698 µg/mL	–	–
COC(=O)C1=C(CN2CCOC[C@H]2C(=O)O)N=C(c2nccs2)N[C@H]1c1ccc(F)cc1Cl [Example 5, (S)-4-[(R)-6-(2-Chloro-4-fluoro-phenyl)-5-methoxycarbonyl-2-thiazol-2-yl-3,6-dihydro-pyrimidin-4-ylmethyl]-morpholine-3-carboxylic acid]	–	–	–	–	–	–	–	–	2.7 mL/min/kg	–	–	11800 ng·h/mL	37%	878 ng·h/mL	19 mL/min/kg	–	–	> 660 µg/mL	> 100000 nM	962 ng·h/mL
COC(=O)C1=C(CN2CC(F)(F)C[C@H]2C(=O)O)NC(c2nc(C)cs2)=N[C@H]1c1ccc(F)cc1Cl [Example 16, (R)-6-((S)-2-Carboxy-4,4-difluoro-pyrrolidin-1-ylmethyl)-4-(2-chloro-4-fluoro-phenyl)-2-(4-methyl-thiazol-2-yl)-1,4-dihydro-pyrimidine-5-carboxylic acid methyl ester]	–	–	–	–	–	–	–	–	6.35 mL/min/kg	15000	30000 nM	35200 ng·h/mL	69%	290 ng·h/mL	57 mL/min/kg	598 ng·h/mL	2 nM	> 622 µg/mL	–	–
COC(=O)C1=C(CN2CCOC[C@H]2C(=O)O)NC(c2ncoc2C)=N[C@H]1c1ccc(F)cc1Cl [Example 68, (S)-4-[(R)-6-(2-Chloro-4-fluoro-phenyl)-5-methoxycarbonyl-2-(5-methyl-oxazol-4-yl)-3,6-dihydro-pyrimidin-4-ylmethyl]-morpholine-3-carboxylic acid]	–	–	–	–	–	–	–	–	0.23 mL/min/kg	>7407	–	–	–	–	–	–	14 nM	> 627 µg/mL	> 100000 nM	–
COC(=O)C1=C(CN2CCOC[C@H]2C(=O)O)NC(c2nccs2)=N[C@H]1c1ccc(F)c(F)c1Cl [Example 73, (S)-4-[(R)-6-(2-Chloro-3,4-difluoro-phenyl)-5-methoxycarbonyl-2-thiazol-2-yl-3,6-dihydro-pyrimidin-4-ylmethyl]-morpholine-3-carboxylic acid]	–	–	–	–	–	–	–	–	0 mL/min/kg	>83333	–	–	–	–	–	–	1.2 nM	> 656 µg/mL	> 100000 nM	–
COC(=O)C1=C(CN2CCOC[C@H]2C(=O)O)NC(c2nccs2)=N[C@H]1c1ccc(F)cc1Br [Example 81, (S)-4-[(R)-6-(2-Bromo-4-fluoro-phenyl)-5-methoxycarbonyl-2-thiazol-2-yl-3,6-dihydro-pyrimidin-4-ylmethyl]-morpholine-3-carboxylic acid]	–	–	–	–	–	–	–	–	5.33 mL/min/kg	>16667	–	–	–	–	–	–	6 nM	> 691 µg/mL	> 100000 nM	–
